Source: PMC2747657 (Bioorganic & medicinal chemistry, 2009)
Where two headings read alike, the source gives them in different places.

Experiments:
NET [1] = target: T1, NET (Rattus norvegicus, UniProt Q63380); test: Inhibition of [3H]nisoxetine binding at the NET
5-HTT = 5-HTT (Rattus norvegicus, UniProt P31652); test: Inhibition of [3H]paroxetine binding at the 5-HTT; details: for NET/5-HTT Ratio: ratio of Ki values of NET/5-HTT, selectivity for the 5-HTT relative to the NET; for Ki: 5-HTT, Ki [3H]paroxetine
Sequence of 5-HTT (P31652 whole entry): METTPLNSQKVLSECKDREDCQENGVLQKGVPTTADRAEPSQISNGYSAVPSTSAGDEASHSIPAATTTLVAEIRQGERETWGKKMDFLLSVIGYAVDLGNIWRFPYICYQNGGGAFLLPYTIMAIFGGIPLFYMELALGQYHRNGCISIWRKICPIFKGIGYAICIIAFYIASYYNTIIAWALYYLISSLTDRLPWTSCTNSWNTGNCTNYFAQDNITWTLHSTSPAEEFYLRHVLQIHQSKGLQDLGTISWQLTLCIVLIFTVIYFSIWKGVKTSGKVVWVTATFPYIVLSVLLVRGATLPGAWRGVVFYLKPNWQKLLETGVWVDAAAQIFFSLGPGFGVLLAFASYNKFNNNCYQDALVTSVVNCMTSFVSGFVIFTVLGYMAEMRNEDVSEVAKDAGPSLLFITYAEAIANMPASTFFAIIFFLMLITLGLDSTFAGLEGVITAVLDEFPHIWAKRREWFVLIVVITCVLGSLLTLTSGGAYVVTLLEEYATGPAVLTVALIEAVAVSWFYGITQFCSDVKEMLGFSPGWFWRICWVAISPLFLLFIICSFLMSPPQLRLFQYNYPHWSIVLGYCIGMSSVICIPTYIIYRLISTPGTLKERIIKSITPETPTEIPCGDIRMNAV

DAT = DAT (Rattus norvegicus, UniProt P23977); test: Inhibition of [3H]WIN35,428 binding at the DAT
Sequence of DAT (P23977 whole entry): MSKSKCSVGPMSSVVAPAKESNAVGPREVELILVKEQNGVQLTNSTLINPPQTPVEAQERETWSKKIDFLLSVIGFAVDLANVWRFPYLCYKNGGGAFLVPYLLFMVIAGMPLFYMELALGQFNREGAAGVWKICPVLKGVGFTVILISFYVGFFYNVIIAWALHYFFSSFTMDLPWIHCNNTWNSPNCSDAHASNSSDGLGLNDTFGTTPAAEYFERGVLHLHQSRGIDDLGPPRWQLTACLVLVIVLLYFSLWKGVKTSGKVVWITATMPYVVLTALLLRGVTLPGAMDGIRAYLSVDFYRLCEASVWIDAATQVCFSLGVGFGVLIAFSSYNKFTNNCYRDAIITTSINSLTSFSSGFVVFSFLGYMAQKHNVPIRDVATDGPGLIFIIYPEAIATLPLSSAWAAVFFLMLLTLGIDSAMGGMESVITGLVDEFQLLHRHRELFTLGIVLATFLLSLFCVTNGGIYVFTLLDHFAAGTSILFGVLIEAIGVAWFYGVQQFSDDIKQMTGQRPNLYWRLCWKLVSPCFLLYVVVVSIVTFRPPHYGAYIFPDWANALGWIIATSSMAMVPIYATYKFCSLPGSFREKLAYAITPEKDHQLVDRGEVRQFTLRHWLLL

NET [2] = target: T1, NET; details: read-out: NET, Ki [3H]nisoxetine; inhibition of [3H]nisoxetine binding; cited from earlier work
[3] = relative to N-methyl compound 7a

T1 sequence (Q63380 1-617): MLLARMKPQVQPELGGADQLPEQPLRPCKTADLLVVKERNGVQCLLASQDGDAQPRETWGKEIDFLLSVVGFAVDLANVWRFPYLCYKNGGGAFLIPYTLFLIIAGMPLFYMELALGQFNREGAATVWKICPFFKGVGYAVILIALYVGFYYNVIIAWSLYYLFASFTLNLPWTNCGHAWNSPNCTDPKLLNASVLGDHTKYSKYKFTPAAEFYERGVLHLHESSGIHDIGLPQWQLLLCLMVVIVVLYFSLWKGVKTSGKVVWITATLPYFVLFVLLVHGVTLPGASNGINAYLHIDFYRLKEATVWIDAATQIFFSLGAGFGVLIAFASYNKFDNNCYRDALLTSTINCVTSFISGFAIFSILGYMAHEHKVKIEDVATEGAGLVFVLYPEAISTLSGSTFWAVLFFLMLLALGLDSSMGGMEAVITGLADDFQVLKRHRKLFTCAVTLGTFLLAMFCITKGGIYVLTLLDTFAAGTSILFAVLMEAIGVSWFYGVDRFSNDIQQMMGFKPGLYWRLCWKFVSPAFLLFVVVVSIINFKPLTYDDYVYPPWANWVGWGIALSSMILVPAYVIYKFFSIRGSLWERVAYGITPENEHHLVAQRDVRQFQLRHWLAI

Row | Compound | Ki (NET [1]) [nM] | Ki (5-HTT) [nM] | also measured
1 | COC(=O)[C@H]1[C@@H](c2ccc(SC)c(Br)c2)C[C@@H]2CC[C@H]1N2C [7e, 3β-(3-Bromo-4-methylthiophenyl)tropane-2β-carboxylic acid methyl ester] | 121 ± 12 | – | –
2 | C=CCN1C2CCC1[C@@H](C(=O)OC)[C@@H](c1ccc(SC)cc1)C2 (stereo partly drawn) [10a, 3β-(4-Methylthiophenyl)-8-allylnortropane-2β-carboxylic acid methyl ester] | – | – | NET/5-HTT Ratio (5-HTT): 314-364
3 | COC(=O)[C@H]1[C@@H](c2ccc(SC(F)(F)F)cc2)C[C@@H]2CC[C@H]1N2C [7d, 3β-(4-Trifluoromethylthiophenyl)tropane-2β-carboxylic acid methyl ester] | 1900 ± 300 | – | –
4 | COC(=O)[C@@H]1C2CCC(C[C@@H]1c1ccc(SC)cc1)N2CCCF (stereo partly drawn) [9a, 3β-(4-Methylthiophenyl)-8-(3-fluoropropyl)nortropane-2β-carboxylic acid methyl ester] | – | – | NET/5-HTT Ratio (5-HTT): 314-364
5 | CCSc1ccc([C@H]2C[C@@H]3CC[C@H]([C@H]2C(=O)OC)N3C)cc1 [7b, 3β-(4-Ethylthiophenyl)tropane-2β-carboxylic acid methyl ester] | 1170 ± 300 | 4.5 ± 0.5 | –
6 | COC(=O)[C@H]1[C@@H](c2ccc([S+](C)[O-])c(Br)c2)C[C@@H]2CC[C@H]1N2C (stereo partly drawn) [7f, 3β-(3-bromo-4-methylsulfinylphenyl)tropane-2β-carboxylic acid methyl ester] | 690 ± 80 | – | –
7 | COC(=O)[C@H]1[C@@H](c2ccc(SC)cc2)C[C@@H]2CC[C@H]1N2C [7a, 3β-(4-Methylthiophenyl)tropane-2β-carboxylic acid methyl ester] | 220 ± 10 | 220 | NET/5-HTT Ratio (5-HTT): 314-364
8 | COC(=O)[C@@H]1C2CCC(C[C@@H]1c1ccc(SC)cc1)N2 (stereo partly drawn) [8a, 3β-(4-Methylthiophenyl)nortropane-2β-carboxylic acid methyl ester] | – | – | fold less affinity at the DAT (DAT; [3]): 3 fold; fold increase in affinity at the 5-HTT (5-HTT; [3]): approximately 4 fold; fold increase in affinity at the NET (NET [1]; [3]): ~10 fold
9 | COC(=O)[C@H]1[C@@H](c2ccc(S(C)(=O)=O)cc2)C[C@@H]2CC[C@H]1N2C [7h, 3β-(4-Methylsulfonylphenyl)tropane-2β-carboxylic acid methyl ester] | > 10000 | 208 ± 45 | IC50 (DAT): > 10000 nM
10 | COC(=O)[C@H]1[C@@H](c2ccc(SC(C)C)cc2)C[C@@H]2CC[C@H]1N2C [7c, 3β-(4-Isopropylthiophenyl)tropane-2β-carboxylic acid methyl ester] | 129 ± 2 | 129 | –
11 | COC(=O)[C@H]1[C@@H](c2ccc(OC)cc2)C[C@@H]2CC[C@H]1N2C [compound 5, 3β-(4-methoxyphenyl)tropane-2β-carboxylic acid methyl ester] | – | – | Ki (NET [2]): 1110 ± 64 nM
12 | COC(=O)[C@H]1[C@@H](c2ccc([S+](C)[O-])cc2)C[C@@H]2CC[C@H]1N2C (stereo partly drawn) [7g, 3β-(4-methylsulfinylphenyl)tropane-2β-carboxylic acid methyl ester] | 515 ± 60 | 4.3 ± 0.6 | –
